Experimental data from patent US9169260B2 (MERCK SHARP & DOHME CORP., priority 2011, dated 2015).
Read-outs that look alike come from different tables or passages of the source.

Target: GST tagged IRAK-4 (Homo sapiens (Human), UniProt Q9NWZ3)
Test: IRAK-4 Kinase Assay (IMAP fluorescence polarization)
Type: biochemical
How it was run: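 Activity was read by IMAP fluorescence polarization, where phosphopeptide binding to M(III) nanoparticles raises FP. The 30-minute, 25° C reaction used 100 μM ATP, 100 nM RP7030 substrate and 0.5 nM GST-IRAK-4 in pH 7.2 Tris buffer with MgCl2, DTT and Tween 20.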

[1] = 100 μM ATP, 30 minutes at 25° C., μM
[2] = 100 μM ATP, 30 minutes at 25° C.

GST tagged IRAK-4, sequence (Q9NWZ3 whole entry): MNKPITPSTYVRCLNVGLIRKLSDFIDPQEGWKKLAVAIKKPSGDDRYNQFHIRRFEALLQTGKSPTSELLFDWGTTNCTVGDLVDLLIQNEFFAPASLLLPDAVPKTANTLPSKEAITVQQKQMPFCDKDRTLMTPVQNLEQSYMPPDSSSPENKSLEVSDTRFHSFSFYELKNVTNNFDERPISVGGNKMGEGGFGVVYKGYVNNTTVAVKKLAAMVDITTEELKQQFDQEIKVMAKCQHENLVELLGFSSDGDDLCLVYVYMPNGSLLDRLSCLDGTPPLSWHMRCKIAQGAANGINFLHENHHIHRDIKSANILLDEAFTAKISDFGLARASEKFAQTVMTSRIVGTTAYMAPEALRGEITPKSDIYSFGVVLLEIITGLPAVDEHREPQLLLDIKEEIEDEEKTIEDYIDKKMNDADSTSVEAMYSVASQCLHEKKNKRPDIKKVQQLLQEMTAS

Compound | IC50 [1] | IC50 [2] | also measured
Cc1ccc(-n2nc(C3CCN(C4CN(C(=O)OC(C)(C)C)C4)CC3)cc2NC(=O)c2cnn3cccnc23)cc1 [Example 261, tert-butyl 3-(4-{1-(4-methylphenyl)-5-[(pyrazolo[1,5-a]pyrimidin-3-ylcarbonyl)amino]-1H-pyrazol-3-yl}piperidin-1-yl)azetidine-1-carboxylate] | < 1 µM | – | –
Cc1ccc(-n2nc(C3CCN(S(=O)(=O)c4ccc(C(F)(F)F)cc4)CC3)cc2NC(=O)c2cnn3cccnc23)cc1 [Example 381, N-[1-(4-methylphenyl)-3-(1-{[4-(trifluoromethyl)phenyl]sulfonyl}piperidin-4-yl)-1H-pyrazol-5-yl]pyrazolo[1,5-a]pyrimidine-3-carboxamide] | > 1 µM | – | –
Cc1ccc(-n2nc(C3CCN(C4CCC(NS(C)(=O)=O)CC4)CC3)cc2NC(=O)c2cnn3cccnc23)nc1 (stereo not drawn) [Example 263, N-[1-(5-methylpyridin-2-yl)-3-(1-{4-[(methylsulfonyl)amino]cyclohexyl]piperidin-4-yl)-1H-pyrazol-5-yl}pyrazolo[1,5-a]pyrimidine-3-carboxamide] | – | < 0.1 µM | –
COc1ccc(-n2nc(C3CCNCC3)cc2NC(=O)c2cnn3cc(Br)cnc23)cc1 [Example 104, 6-bromo-N-(1-(4-methoxyphenyl)-3-(piperidin-4-yl)-1H-pyrazol-5-yl)pyrazolo[1,5-a]pyrimidine-3-carboxamide] | < 1 µM | – | –
N#Cc1ccc(-n2nc(C3CCNCC3)cc2NC(=O)c2cnn3cccnc23)cc1 [Example 12, N-(1-(4-cyanophenyl)-3-(piperidin-4-yl)-1H-pyrazol-5-yl)pyrazolo[1,5-a]pyrimidine-3-carboxamide] | > 1 µM | – | –
Cc1ccc(-n2nc(C3=CCN(S(C)(=O)=O)CC3)cc2NC(=O)c2cnn3cccnc23)cc1 [Example 139, N-(3-(1-(methylsulfonyl)-1,2,3,6-tetrahydropyridin-4-yl)-1-(p-tolyl)-1H-pyrazol-5-yl)pyrazolo[1,5-a]pyrimidine-3-carboxamide] | – | < 0.1 µM | –
Cc1ccc(-n2nc(C3CN(Cc4ccncc4)C3)cc2NC(=O)c2cnn3cccnc23)cc1 [Example 309, N-{1-(4-methylphenyl)-3-[1-(pyridin-4-ylmethyl)azetidin-3-yl]-1H-pyrazol-5-yl}pyrazolo[1,5-a]pyrimidine-3-carboxamide] | < 1 µM | – | –
Cc1ccc(-n2nc(C3CCN(C4CC5(CCCC5)C4)CC3)cc2NC(=O)c2cnn3cccnc23)cc1 [Example 257, N-[1-(4-methylphenyl)-3-(1-spiro[3.4]oct-2-ylpiperidin-4-yl)-1H-pyrazol-5-yl]pyrazolo[1,5-a]pyrimidine-3-carboxamide] | – | < 0.1 µM | –
Cc1ccc(-n2nc(C3CCN(S(=O)(=O)c4cn(C)c(C)n4)CC3)cc2NC(=O)c2cnn3cccnc23)cc1 [Example 386, N-[3-{1-[(1,2-dimethyl-1H-imidazol-4-yl)sulfonyl]piperidin-4-yl}-1-(4-methylphenyl)-1H-pyrazol-5-yl]pyrazolo[1,5-a]pyrimidine-3-carboxamide] | < 1 µM | – | –
O=C(Nc1cc(C2CCNCC2)nn1-c1ccc(F)cc1)c1cnn2cccnc12 [Example 10, N-(1-(4-fluorophenyl)-3-(piperidin-4-yl)-1H-pyrazol-5-yl)pyrazolo[1,5-a]pyrimidine-3-carboxamide] | < 1 µM | – | –
Cc1ccc(-n2nc(C3CCN(S(=O)(=O)c4cnn(C)c4)CC3)cc2NC(=O)c2cnn3cccnc23)cc1 [Example 375, N-[1-(4-methylphenyl)-3-{1-[(1-methyl-1H-pyrazol-4-yl)sulfonyl]piperidin-4-yl}-1H-pyrazol-5-yl]pyrazolo[1,5-a]pyrimidine-3-carboxamide] | < 1 µM | – | –
Cc1ccc(-n2nc(C3CNC3)cc2NC(=O)c2cnn3cccnc23)cc1 [Example 82, N-(3-(azetidin-3-yl)-1-(p-tolyl)-1H-pyrazol-5-yl)pyrazolo[1,5-a]pyrimidine-3-carboxamide] | > 1 µM | – | –
N-(3-(1-methylpiperidin-4-yl)-1-(5-methylpyridin-2-yl)-1H-pyrazol-5-yl)pyrazolo[1,5-a]pyrimidine-3-carboxamide [Example 399] | – | – | IC50: < 0.1 µM
Cc1ccc(-n2nc(C3CN(Cc4ccn[nH]4)C3)cc2NC(=O)c2cnn3cccnc23)cc1 [Example 306, N-{1-(4-methylphenyl)-3-[1-(1H-pyrazol-5-ylmethyl)azetidin-3-yl]-1H-pyrazol-5-yl}pyrazolo[1,5-a]pyrimidine-3-carboxamide] | < 1 µM | – | –
COc1ccc(-n2nc(C3CCN(S(=O)(=O)C(F)(F)F)CC3)cc2NC(=O)c2cnn3cccnc23)cc1 [Example 30, N-(1-(4-methoxyphenyl)-3-(1-((trifluoromethyl)sulfonyl)piperidin-4-yl)-1H-pyrazol-5-yl)pyrazolo[1,5-a]pyrimidine-3-carboxamide] | > 1 µM | – | –
COc1ccc(-c2cc(NC(=O)c3cnn4cccnc34)n(-c3ccc(C)cc3)n2)cc1OC [Example 133, N-(3-(3,4-dimethoxyphenyl)-1-(p-tolyl)-1H-pyrazol-5-yl)pyrazolo[1,5-a]pyrimidine-3-carboxamide] | – | < 0.1 µM | –
Cc1ccc(-n2nc(C3CCN(C(=O)CCN(C)C)CC3)cc2NC(=O)c2cnn3cc(Br)cnc23)cc1 [Example 113, 6-bromo-N-(3-(1-(3-(dimethylamino)propanoyl)piperidin-4-yl)-1-(p-tolyl)-1H-pyrazol-5-yl)pyrazolo[1,5-a]pyrimidine-3-carboxamide] | – | < 0.1 µM | –

Compound | IC50 [1] | IC50 [2] | also measured
Cc1ccc(-n2nc(C3CCNCC3)cc2NC(=O)c2cnn3cccnc23)nc1 [Example 152, N-(1-(5-methylpyridin-2-yl)-3-(piperidin-4-yl)-1H-pyrazol-5-yl)pyrazolo[1,5-a]pyrimidine-3-carboxamide] | – | < 0.1 µM | –
COc1ccc(-c2cc(NC(=O)c3cnn4cccnc34)n(-c3ccc(C)cc3)n2)cn1 [Example 124, N-(3-(6-methoxypyridin-3-yl)-1-(p-tolyl)-1H-pyrazol-5-yl)pyrazolo[1,5-a]pyrimidine-3-carboxamide] | < 1 µM | – | –
Cc1ccc(-n2nc(C3=CC(=O)N(C)CC3)cc2NC(=O)c2cnn3cccnc23)cc1 [Example 354, N-[3-(1-methyl-6-oxo-1,2,3,6-tetrahydropyridin-4-yl)-1-(4-methylphenyl)-1H-pyrazol-5-yl]pyrazolo[1,5-a]pyrimidine-3-carboxamide] | < 1 µM | – | –
CNC(=O)c1cccc(-c2cc(NC(=O)c3cnn4cccnc34)n(-c3ccc(C)cc3)n2)c1 [Example 350, N-{3-[3-(methylcarbamoyl)phenyl]-1-(4-methylphenyl)-1H-pyrazol-5-yl}pyrazolo[1,5-a]pyrimidine-3-carboxamide] | < 1 µM | – | –
Cc1ccc(-n2nc(C3CCC(=O)CC3)cc2NC(=O)c2cnn3cccnc23)cc1 [Example 1, N-(3-(4-oxocyclohexyl)-1-p-tolyl-1H-pyrazol-5-yl)pyrazolo[1,5-a]pyrimidine-3-carboxamide] | – | < 0.1 µM | –
Cc1ccc(-n2nc(N3CCN(C)CC3)cc2NC(=O)c2cnn3cccnc23)nc1 [Example 197, N-(3-(4-methylpiperazin-1-yl)-1-(5-methylpyridin-2-yl)-1H-pyrazol-5-yl)pyrazolo[1,5-a]pyrimidine-3-carboxamide] | – | < 0.1 µM | –
Cc1ccc(-n2nc(N3CCN(C4CCC4)CC3)cc2NC(=O)c2cnn3cccnc23)nc1 [Example 320, N-[3-(4-cyclobutylpiperazin-1-yl)-1-(5-methylpyridin-2-yl)-1H-pyrazol-5-yl]pyrazolo[1,5-a]pyrimidine-3-carboxamide] | – | < 0.1 µM | –
Cc1ccc(-n2nc(-c3ccc(N)cc3)cc2NC(=O)c2cnn3cccnc23)cc1 [Example 102, N-(3-(4-aminophenyl)-1-(p-tolyl)-1H-pyrazol-5-yl)pyrazolo[1,5-a]pyrimidine-3-carboxamide] | < 1 µM | – | –
Cc1ccc(-n2nc(C3CCOCC3)cc2NC(=O)c2cnn3cccnc23)cc1 [Example 46, N-(3-(tetrahydro-2H-pyran-4-yl)-1-(p-tolyl)-1H-pyrazol-5-yl)pyrazolo[1,5-a]pyrimidine-3-carboxamide] | < 1 µM | – | –
Cc1ccc(-n2nc(C3CCN(S(=O)(=O)c4ccc5ccccc5c4)CC3)cc2NC(=O)c2cnn3cccnc23)cc1 [Example 377, N-{1-(4-methylphenyl)-3-[1-(naphthalen-2-ylsulfonyl)piperidin-4-yl]-1H-pyrazol-5-yl}pyrazolo[1,5-a]pyrimidine-3-carboxamide] | > 1 µM | – | –
CCCC(C)N1CCC(c2cc(NC(=O)c3cnn4cccnc34)n(-c3ccc(C)cc3)n2)CC1 (stereo not drawn) [Example 210] | – | < 0.1 µM | –
Cc1ccc(-n2nc(C3CCN(C(C)c4ncccc4F)CC3)cc2NC(=O)c2cnn3cccnc23)cc1 (stereo not drawn) [Example 212, N-(3-(1-(1-(3-fluoropyridin-2-yl)ethyl)piperidin-4-yl)-1-(p-tolyl)-1H-pyrazol-5-yl)pyrazolo[1,5-a]pyrimidine-3-carboxamide] | < 1 µM | – | –
[2H]C([2H])([2H])c1ccc(-n2nc(C3CCN(S(C)(=O)=O)CC3)cc2NC(=O)c2cnn3cccnc23)nc1 [Example 155, N-(1-(5-trideuteromethylpyridin-2-yl)-3-(1-(methylsulfonyl)piperidin-4-yl)-1H-pyrazol-5-yl)pyrazolo[1,5-a]pyrimidine-3-carboxamide] | – | < 0.1 µM | –
O=C(Nc1cc(C2CCNCC2)nn1-c1ccc(Br)cc1F)c1cnn2cccnc12 [Example 70, N-(1-(4-bromo-2-fluorophenyl)-3-(piperidin-4-yl)-1H-pyrazol-5-yl)pyrazolo[1,5-a]pyrimidine-3-carboxamide] | < 1 µM | – | –
CC(=O)N1CC(N2CCC(c3cc(NC(=O)c4cnn5cccnc45)n(-c4ccc(C)cc4)n3)CC2)C1 [Example 248, N-{3-[1-(1-acetylazetidin-3-yl)piperidin-4-yl]-1-(4-methylphenyl)-1H-pyrazol-5-yl}pyrazolo pyrimidine-3-carboxamide] | < 1 µM | – | –
Cc1ccc(-n2nc(C3CCN(S(=O)(=O)Cc4ccncc4)CC3)cc2NC(=O)c2cnn3cccnc23)cc1 [Example 358, N-[1-(4-methylphenyl)-3-{1-[(pyridin-4-ylmethyl)sulfonyl]piperidin-4-yl}-1H-pyrazol-5-yl]pyrazolo[1,5-a]pyrimidine-3-carboxamide] | < 1 µM | – | –
